Experimental findings from PubChem BioAssay (NCI) are described below.

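Exposure lasted 48 hours, with cells grown in 96-well plates and compounds tested at five concentrations. GI50 marks 50% less growth. TGI marks complete inhibition of growth.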

Among the test systems are A549 NSCLC; EKVX NSCLC; HCC-2998 colon; LOX IMVI melanoma; MOLT-4 leukemia; OVCAR-5 ovarian; SK-MEL-2 melanoma; SK-MEL-5 melanoma; SW-620 colon; UACC-257 melanoma.
What all share (experiment): NCI-60 cell line screen, 48 h

In the case of `N#CC(Nc1cccc(C(F)(F)F)c1)c1ccccc1C(F)(F)F` (stereo unspecified), the TGI with A549 NSCLC is 29.3 µM; with EKVX NSCLC it was 28.7 µM; in the experiment with HCC-2998 colon, 18.6 µM; with LOX IMVI melanoma it was 14.5 µM; with MOLT-4 leukemia, 40.5 µM; in the experiment with OVCAR-5 ovarian it was 28.4 µM. Moreover, the TGI in the experiment with SK-MEL-2 melanoma was 17.9 µM; in the experiment with SK-MEL-5 melanoma, 32.1 µM; in the experiment on SW-620 colon, 11 µM; in the experiment with UACC-257 melanoma, 27.7 µM.
Take `c1ccc(N=c2nc(N3CCOCC3)ss2)cc1`: the TGI was above 100 µM with A549 NSCLC; 36.4 µM in the experiment with EKVX NSCLC; 45.1 µM in the experiment with HCC-2998 colon; 30.1 µM in the experiment on LOX IMVI melanoma; 37.1 µM in the experiment on MOLT-4 leukemia; 52.1 µM in the experiment on OVCAR-5 ovarian. Besides, the TGI in the experiment on SK-MEL-2 melanoma is 43.4 µM; with SK-MEL-5 melanoma, above 100 µM; in the experiment on SW-620 colon, 21.8 µM; in the experiment on UACC-257 melanoma it was 29.8 µM.
For the molecule `CCOc1ccc(/C(C=O)=C(\Cl)c2ccc(OC)c(OC)c2)cc1`, the TGI in the experiment on EKVX NSCLC, in the experiment on LOX IMVI melanoma, in the experiment on SK-MEL-2 melanoma, in the experiment with SK-MEL-5 melanoma and in the experiment with SW-620 colon was above 100 µM throughout.
For `CCCC(N)C(=O)c1ccccc1` (stereo unspecified), the TGI in the experiment with A549 NSCLC, in the experiment on EKVX NSCLC, in the experiment on HCC-2998 colon, in the experiment with LOX IMVI melanoma, in the experiment on OVCAR-5 ovarian and in the experiment on SK-MEL-2 melanoma was above 100 µM throughout. The TGI with SK-MEL-5 melanoma, with SW-620 colon and with UACC-257 melanoma was above 100 µM each time.
With `Cc1cc2c(C(C)C)c(O)c(O)c(C=NCCO)c2c(O)c1-c1c(C)cc2c(C(C)C)c(O)c(O)c(C=NCCO)c2c1O`, the TGI with A549 NSCLC was 2.98 µM; in the experiment on EKVX NSCLC, 7.3 µM; in the experiment on HCC-2998 colon it was 8.25 µM; with LOX IMVI melanoma, 3.11 µM; in the experiment with MOLT-4 leukemia, 2.46 µM; in the experiment with OVCAR-5 ovarian, 9.63 µM. Moreover, the TGI was determined as 14.6 µM in the experiment with SK-MEL-2 melanoma, 3.23 µM in the experiment on SK-MEL-5 melanoma, 16.7 µM in the experiment with SW-620 colon and 4.98 µM with UACC-257 melanoma.
With `O=C(Nc1ccc(Sc2ccc(N=Nc3c(O)c(S(=O)(=O)O)cc4cc(S(=O)(=O)O)ccc34)cc2)cc1)c1ccc(N=Nc2c(O)ccc3c(S(=O)(=O)O)cc(S(=O)(=O)O)cc23)cc1`, the TGI in the experiment on A549 NSCLC is above 100 µM; in the experiment on EKVX NSCLC, above 100 µM; with HCC-2998 colon, above 100 µM; with LOX IMVI melanoma, 34.8 µM; in the experiment on MOLT-4 leukemia it was 52.1 µM; in the experiment on OVCAR-5 ovarian it was above 100 µM. In addition, the TGI in the experiment on SK-MEL-2 melanoma was above 100 µM; in the experiment on SK-MEL-5 melanoma, 43.3 µM; in the experiment on SW-620 colon it was above 100 µM; in the experiment on UACC-257 melanoma, above 100 µM.
For the molecule `O=C(Nc1c(C(=O)NC2CCCCC2)[nH]c(=O)[nH]c1=O)c1ccc(Cl)cc1`, the TGI in the experiment on A549 NSCLC, in the experiment on EKVX NSCLC, in the experiment on LOX IMVI melanoma, in the experiment with MOLT-4 leukemia, in the experiment on OVCAR-5 ovarian and in the experiment with SK-MEL-5 melanoma was above 100 µM throughout. Moreover, the TGI with SW-620 colon was above 100 µM.
`CC(=O)O[C@H]1C=CC(=O)C(C)CC1C` (stereo partly specified): the TGI with A549 NSCLC, in the experiment on EKVX NSCLC, in the experiment on HCC-2998 colon, in the experiment with LOX IMVI melanoma, with MOLT-4 leukemia and in the experiment with OVCAR-5 ovarian was above 100 µM throughout. Moreover, the TGI in the experiment on SK-MEL-2 melanoma, in the experiment with SK-MEL-5 melanoma, with SW-620 colon and with UACC-257 melanoma was above 100 µM in each case.
Consider `CCC(=O)NC(Nc1cccc(F)c1)(C(F)(F)F)C(F)(F)F`, for which the TGI in the experiment with A549 NSCLC, in the experiment with EKVX NSCLC, in the experiment with HCC-2998 colon, in the experiment with LOX IMVI melanoma, in the experiment with MOLT-4 leukemia and with OVCAR-5 ovarian was above 100 µM throughout. For the same molecule, the TGI with SK-MEL-2 melanoma, in the experiment on SK-MEL-5 melanoma, in the experiment on SW-620 colon and in the experiment with UACC-257 melanoma was above 100 µM each time.
In the case of `Clc1ccc(CNc2nc(Cl)c3[nH]cnc3n2)cc1Cl`, the TGI with A549 NSCLC was above 100 µM; in the experiment with EKVX NSCLC it was above 100 µM; with HCC-2998 colon, 53.2 µM; in the experiment with MOLT-4 leukemia, above 100 µM; in the experiment with OVCAR-5 ovarian it was above 100 µM; in the experiment with SK-MEL-2 melanoma, 77.9 µM. In addition, the TGI in the experiment on SK-MEL-5 melanoma was determined as 37.4 µM; with UACC-257 melanoma, 48.9 µM.
Consider `COc1ccc(-c2nn(-c3cccc(NC(=O)Nc4ccccc4)c3)cc2-c2ccncc2)cc1Cl`, for which the GI50 in the experiment on A549 NSCLC was 2110 nM; with LOX IMVI melanoma, 3.25 µM; in the experiment with MOLT-4 leukemia, 2500 nM; in the experiment with OVCAR-5 ovarian, 2500 nM; in the experiment on SK-MEL-2 melanoma it was 3140 nM; in the experiment with SW-620 colon, 2510 nM. Further, in the experiment with UACC-257 melanoma, the GI50 is 2500 nM. Moreover, the TGI with A549 NSCLC stood at 4.99 µM; in the experiment on LOX IMVI melanoma, 17 µM; in the experiment on MOLT-4 leukemia, 7.96 µM; with OVCAR-5 ovarian it was 8.79 µM; with SK-MEL-2 melanoma, 7.53 µM; with SW-620 colon, 7.36 µM. The molecule also showed a TGI in the experiment with UACC-257 melanoma of 6.33 µM.
For the molecule `NC1(C(=O)O)CCc2ccc(N(CCCl)CCCl)cc2C1` (stereo unspecified), the TGI in the experiment on A549 NSCLC was above 100 µM; with EKVX NSCLC, above 100 µM; with HCC-2998 colon, above 100 µM; with LOX IMVI melanoma, above 100 µM; with MOLT-4 leukemia, 87 µM; in the experiment on OVCAR-5 ovarian it was above 100 µM. The TGI in the experiment on SK-MEL-2 melanoma, with SK-MEL-5 melanoma, with SW-620 colon and in the experiment with UACC-257 melanoma was above 100 µM each time.
As for `CN1C[C@H]2[C@@H](C1=O)[C@H](c1ccccc1)ON2C`, the TGI with A549 NSCLC, in the experiment on HCC-2998 colon, with LOX IMVI melanoma, with MOLT-4 leukemia, in the experiment on OVCAR-5 ovarian and with SK-MEL-2 melanoma was above 100 µM throughout. Besides, the TGI in the experiment on SK-MEL-5 melanoma, with SW-620 colon and with UACC-257 melanoma was above 100 µM throughout.
With `O=C(O)C1CCC(=O)N1S(=O)(=O)c1ccccc1` (stereo unspecified), the TGI with A549 NSCLC, with EKVX NSCLC, with HCC-2998 colon, in the experiment with LOX IMVI melanoma, with MOLT-4 leukemia and in the experiment with OVCAR-5 ovarian was above 100 µM each time. The TGI in the experiment with SK-MEL-2 melanoma, in the experiment with SK-MEL-5 melanoma, with SW-620 colon and with UACC-257 melanoma was above 100 µM each time.
With `Fc1ccc(-c2nn3c(-c4cc(C(F)(F)F)cc(C(F)(F)F)c4)nnc3s2)cc1`, the GI50 was 1750 nM in the experiment on EKVX NSCLC; above 50 µM with HCC-2998 colon; above 50000 nM in the experiment on MOLT-4 leukemia; above 50000 nM in the experiment on OVCAR-5 ovarian; 1640 nM with SK-MEL-2 melanoma; 4.42 µM in the experiment on SK-MEL-5 melanoma. In the experiment with SW-620 colon, the GI50 was above 50000 nM. For the same molecule, the TGI in the experiment with EKVX NSCLC is above 50 µM; with HCC-2998 colon, above 50 µM; in the experiment on MOLT-4 leukemia it was above 50 µM; in the experiment with OVCAR-5 ovarian, above 50 µM; in the experiment with SK-MEL-2 melanoma it was 4.75 µM; in the experiment on SK-MEL-5 melanoma, above 50 µM. The TGI in the experiment on SW-620 colon is above 50 µM.
